# Laboratory results as given in ChEMBL document CHEMBL3102727, “Conformationally constrained ortho-anilino diaryl ureas: discovery of 1-(2-(1'-neopentylspiro[indoline-3,4'-piperidine]-1-yl)phenyl)-3-(4-(trifluoromethoxy)phenyl)urea, a potent, selective, and bioavailable P2Y1 antagonist” (J Med Chem, 2013).
# Active and inactive are the calls of the source. The rule behind the calls is not given here.
# Experiments:
# Rattus norvegicus [1] = assay: Induction of mesenteric bleeding time in iv dosed Sprague-Dawley rat measured over 10 mins; assay type: organism-based; details: in vivo
# Rattus norvegicus [2] = assay: Induction of mesenteric bleeding time in Sprague-Dawley rat at 0.6 mg/kg and 2.25 mg/kg/hr, iv measured over 10 mins relative to vehicle-treated control; assay type: organism-based; details: in vivo
# Rattus norvegicus [3] = assay: Induction of mesenteric bleeding time in Sprague-Dawley rat at 0.2 mg/kg and 0.75 mg/kg/hr, iv measured over 10 mins relative to vehicle-treated control; assay type: organism-based; details: in vivo
# Rattus norvegicus [4] = assay: Antithrombotic activity in iv dosed FeCl2-induced Sprague-Dawley rat carotid artery thrombosis model assessed as increase in integrated blood flow measured over 60 mins; assay type: functional, organism-based
# Rattus norvegicus [5] = assay: Antithrombotic activity in iv dosed FeCl2-induced Sprague-Dawley rat carotid artery thrombosis model assessed as inhibition of arterial thrombus formation after 60 mins; assay type: functional, organism-based
# Rattus norvegicus [6] = assay: Antithrombotic activity in iv dosed FeCl2-induced Sprague-Dawley rat vena cava thrombosis model assessed as reduction of thrombus weight after 60 mins; assay type: functional, organism-based
# Rattus norvegicus [7] = assay: Antithrombotic activity in FeCl2-induced Sprague-Dawley rat vena cava thrombosis model assessed as reduction of thrombus weight at 0.6 mg/kg and 2.25 mg/kg/hr, iv after 60 mins relative to vehicle-treated control; assay type: functional; set-up: scale not given: the % may be the effect or the level left
# Rattus norvegicus [8] = assay: Antithrombotic activity in FeCl2-induced Sprague-Dawley rat vena cava thrombosis model assessed as reduction of thrombus weight at 0.2 mg/kg and 0.75 mg/kg/hr, iv after 60 mins relative to vehicle-treated control; assay type: functional; set-up: scale not given: the % may be the effect or the level left
# Rattus norvegicus [9] = assay: Ex vivo antiplatelet activity in Sprague-Dawley rat assessed as inhibition of […] uM ADP-induced platelet aggregation at 10 mg/kg, po after 60 mins relative to vehicle-treated control; assay type: functional; details: 1 h
# Rattus norvegicus [10] = assay: Ex vivo antiplatelet activity in Sprague-Dawley rat assessed as inhibition of […] uM ADP-induced platelet aggregation at 3 mg/kg, po after 60 mins relative to vehicle-treated control; assay type: functional; details: 1 h
# Rattus norvegicus [11] = assay: Ex vivo antiplatelet activity in Sprague-Dawley rat assessed as inhibition of […] uM ADP-induced platelet aggregation at 0.2 mg/kg and 0.75 mg/kg/hr, iv after 60 mins relative to vehicle-treated control; assay type: functional
# Rattus norvegicus [12] = assay: Ex vivo antiplatelet activity in Sprague-Dawley rat assessed as inhibition of […] uM ADP-induced platelet aggregation at 0.6 mg/kg and 2.25 mg/kg/hr, iv after 60 mins relative to vehicle-treated control; assay type: functional
# Rattus norvegicus [13] = assay: Antithrombotic activity in FeCl2-induced Sprague-Dawley rat carotid artery thrombosis model assessed as integrated blood flow at 10 mg/kg, po after 60 mins relative to vehicle-treated control; assay type: functional
# Rattus norvegicus [14] = assay: Antithrombotic activity in FeCl2-induced Sprague-Dawley rat carotid artery thrombosis model assessed as integrated blood flow at 0.6 mg/kg and 2.25 mg/kg/hr, iv after 60 mins relative to vehicle-treated control; assay type: functional
# Rattus norvegicus [15] = assay: Antithrombotic activity in FeCl2-induced Sprague-Dawley rat carotid artery thrombosis model assessed as prevention of vascular occlusion at 10 mg/kg, po after 60 mins; assay type: functional, organism-based; set-up: dose 10 mg/kg
# Rattus norvegicus [16] = assay: Antithrombotic activity in FeCl2-induced Sprague-Dawley rat carotid artery thrombosis model assessed as prevention of vascular occlusion at 0.6 mg/kg and 2.25 mg/kg/hr, iv after 60 mins; assay type: functional, organism-based
# Rattus norvegicus [17] = assay: Antithrombotic activity in FeCl2-induced Sprague-Dawley rat carotid artery thrombosis model assessed as reduction of thrombus weight at 3 mg/kg, po after 60 mins relative to vehicle-treated control; assay type: functional; set-up: scale not given: the % may be the effect or the level left
# Rattus norvegicus [18] = assay: Antithrombotic activity in FeCl2-induced Sprague-Dawley rat carotid artery thrombosis model assessed as reduction of thrombus weight at 0.2 mg/kg and 0.75 mg/kg/hr, iv after 60 mins relative to vehicle-treated control; assay type: functional; set-up: scale not given: the % may be the effect or the level left
# Rattus norvegicus [19] = assay: Antithrombotic activity in FeCl2-induced Sprague-Dawley rat carotid artery thrombosis model assessed as reduction of thrombus weight at 10 mg/kg, po after 60 mins relative to vehicle-treated control; assay type: functional; set-up: scale not given: the % may be the effect or the level left
# Rattus norvegicus [20] = assay: Antithrombotic activity in FeCl2-induced Sprague-Dawley rat carotid artery thrombosis model assessed as reduction of thrombus weight at 0.6 mg/kg and 2.25 mg/kg/hr, iv after 60 mins relative to vehicle-treated control; assay type: functional; set-up: scale not given: the % may be the effect or the level left
# Rattus norvegicus [21] = assay: Antithrombotic activity in po dosed FeCl2-induced Sprague-Dawley rat carotid artery thrombosis model assessed as increase in integrated blood flow measured over 60 mins; assay type: functional, organism-based
# Rattus norvegicus [22] = assay: Antithrombotic activity in po dosed FeCl2-induced Sprague-Dawley rat carotid artery thrombosis model assessed as inhibition of arterial thrombus formation after 60 mins; assay type: functional, organism-based
# Rattus norvegicus [23] = organism: Rattus norvegicus; assay: Inhibition of rat sodium channel site-2 at 10 uM relative to control
# L-type calcium channel = L-type calcium channel (Rattus norvegicus, UniProt P22002+P27732+Q02485); assay: Inhibition of rat L-type calcium channel at 10 uM relative to control
# [24] = molecular target: Opioid receptors; mu/kappa/delta (Homo sapiens, UniProt P41145+P41143+P35372); assay: Inhibition of opioid receptor (unknown origin)
# HEK293 = assay: Selectivity ratio of IC50 for P2X1 receptor in HEK293 cells to IC50 for P2Y1 receptor in washed human platelets; assay type: cell-based
# P2X purinoceptor 1 = molecular target: T1, P2X purinoceptor 1 (Homo sapiens, UniProt P51575); assay: Antagonist activity at P2X1 receptor in HEK293 cells assessed as alpha, beta-methylene ATP-induced calcium flux by FLIPR assay; assay type: cell-based
# T1 sequence (P51575 whole entry): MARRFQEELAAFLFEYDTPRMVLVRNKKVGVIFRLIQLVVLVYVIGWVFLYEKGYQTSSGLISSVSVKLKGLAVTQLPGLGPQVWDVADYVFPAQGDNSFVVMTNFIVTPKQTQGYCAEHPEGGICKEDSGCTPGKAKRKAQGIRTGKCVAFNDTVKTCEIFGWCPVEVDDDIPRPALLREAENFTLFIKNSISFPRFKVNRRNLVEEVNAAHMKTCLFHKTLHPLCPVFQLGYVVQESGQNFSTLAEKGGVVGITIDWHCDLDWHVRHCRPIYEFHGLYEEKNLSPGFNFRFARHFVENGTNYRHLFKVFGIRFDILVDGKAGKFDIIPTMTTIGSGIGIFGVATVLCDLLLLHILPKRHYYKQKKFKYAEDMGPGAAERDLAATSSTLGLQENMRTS
# P2Y purinoceptor 2 = P2Y purinoceptor 2 (Homo sapiens, UniProt P41231); assay: Antagonist activity at P2Y2 receptor in human HeLa cells assessed as intracellular calcium mobilization after 10 mins by Fluo-4 AM staining-based FLIPR assay; assay type: functional, cell-based
# P2Y purinoceptor 12 = P2Y purinoceptor 12 (Homo sapiens, UniProt Q9H244); assay: Displacement of [33P]-2MeS-ADP from P2Y12 receptor (unknown origin) transfected in HEK293 cells after 1 hr by scintillation counting analysis; assay type: cell-based
# [25] = Fraction unbound in dog; assay type: ADME, organism-based, Canis lupus familiaris; details: in vivo
# [26] = Fraction unbound in rabbit; assay type: ADME, organism-based, Oryctolagus cuniculus; details: in vivo
# [27] = Fraction unbound in mouse; assay type: ADME, organism-based; details: in vivo
# [28] = Fraction unbound in rat; assay type: ADME, organism-based; details: in vivo
# [29] = Oral bioavailability in dog at 0.2 mg/kg; assay type: ADME, organism-based, Canis lupus familiaris; details: in vivo
# [30] = Fraction unbound in human; assay type: ADME, organism-based; details: in vivo
# [31] = Half life in dog at 0.2 mg/kg, po; assay type: ADME, organism-based, Canis lupus familiaris; set-up: dose 0.2 mg/kg, route oral; details: in vivo
# [32] = Clearance in dog at 0.2 mg/kg, po and 0.1 mg/kg, iv; assay type: ADME, organism-based, Canis lupus familiaris; details: in vivo
# [33] = Volume of distribution at steady state in dog at 0.2 mg/kg, po and 0.1 mg/kg, iv; assay type: ADME, organism-based, Canis lupus familiaris; details: in vivo, read-out: Vdss
# [34] = Total AUC in rat at 0.5 mg/kg, po; assay type: ADME, organism-based; set-up: time AUCmax, dose 0.5 mg/kg, route oral; details: in vivo
# [35] = Oral bioavailability in rat at 0.5 mg/kg; assay type: ADME, organism-based; details: in vivo
# [36] = Half life in rat at 0.5 mg/kg, iv administered as bolus dose and po; assay type: ADME, organism-based; set-up: dose 0.5 mg/kg, route oral; details: in vivo
# [37] = Volume of distribution at steady state in rat at 0.5 mg/kg, iv administered as bolus dose; assay type: ADME, organism-based; set-up: dose 0.5 mg/kg, route intravenous; details: in vivo, read-out: Vdss
# [38] = Clearance in rat at 0.5 mg/kg, iv administered as bolus dose; assay type: ADME, organism-based; set-up: dose 0.5 mg/kg, route intravenous; details: in vivo
# [39] = Aqueous solubility of the crystalline form of compound in phosphate buffer at pH 6.5; assay type: physicochemical
# [40] = Metabolic stability in rat liver microsomes assessed as compound remaining after 10 mins; assay type: ADME; details: read-out: Stability
# [41] = Metabolic stability in human liver microsomes assessed as compound remaining after 10 mins; assay type: ADME; details: read-out: Stability
# [42] = Partition coefficient, log P of the compound at pH 7 by reversed-phase HPLC method; assay type: physicochemical; details: octanol/water
# P2Y purinoceptor 1 [43] = molecular target: T2, P2Y purinoceptor 1 (Homo sapiens, UniProt P47900); assay: Antagonist activity at P2Y1 receptor in washed human platelets assessed as 1 uM 2-methylthio-ADP-induced calcium flux by FLIPR assay; assay type: functional
# P2Y purinoceptor 1 [44] = molecular target: T2, P2Y purinoceptor 1; assay: Displacement of [33P]-2MeS-ADP from human P2Y1 receptor expressed in HEK293 cells after 1 hr by scintillation counting analysis; assay type: cell-based
# T2 sequence (P47900 whole entry): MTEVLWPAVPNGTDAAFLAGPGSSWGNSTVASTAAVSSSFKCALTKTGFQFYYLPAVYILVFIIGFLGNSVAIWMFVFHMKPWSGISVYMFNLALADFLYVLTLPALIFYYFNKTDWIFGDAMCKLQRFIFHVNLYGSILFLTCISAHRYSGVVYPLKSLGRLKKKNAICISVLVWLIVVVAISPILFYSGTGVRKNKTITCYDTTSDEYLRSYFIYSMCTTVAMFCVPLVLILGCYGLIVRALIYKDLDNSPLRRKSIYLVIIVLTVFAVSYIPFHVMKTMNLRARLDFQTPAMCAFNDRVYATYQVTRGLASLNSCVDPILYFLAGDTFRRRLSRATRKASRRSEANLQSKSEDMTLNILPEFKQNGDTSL
# Chain of P2Y purinoceptor 12 (Q9H244 whole entry): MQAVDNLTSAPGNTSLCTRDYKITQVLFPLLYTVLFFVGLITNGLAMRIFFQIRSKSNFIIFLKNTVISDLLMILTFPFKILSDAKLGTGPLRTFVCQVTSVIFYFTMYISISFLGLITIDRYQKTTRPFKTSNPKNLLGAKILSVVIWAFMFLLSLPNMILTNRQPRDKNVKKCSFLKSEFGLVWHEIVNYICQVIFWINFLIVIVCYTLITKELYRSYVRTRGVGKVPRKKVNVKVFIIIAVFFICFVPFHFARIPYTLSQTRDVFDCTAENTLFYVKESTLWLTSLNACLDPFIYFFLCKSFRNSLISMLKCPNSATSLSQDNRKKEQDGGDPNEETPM
# Chain of P2Y purinoceptor 2 (P41231 whole entry): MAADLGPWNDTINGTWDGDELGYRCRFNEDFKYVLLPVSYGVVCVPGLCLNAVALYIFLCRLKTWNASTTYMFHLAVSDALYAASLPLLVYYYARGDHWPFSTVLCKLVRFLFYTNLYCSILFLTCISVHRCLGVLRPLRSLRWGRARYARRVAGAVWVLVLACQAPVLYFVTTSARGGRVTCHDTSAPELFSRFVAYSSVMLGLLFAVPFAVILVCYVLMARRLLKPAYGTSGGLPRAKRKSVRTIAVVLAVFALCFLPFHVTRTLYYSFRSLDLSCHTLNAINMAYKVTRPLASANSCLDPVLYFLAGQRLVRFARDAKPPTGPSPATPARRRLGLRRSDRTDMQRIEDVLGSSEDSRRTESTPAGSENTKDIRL
smiles,measurement,setting,value
CC(C)(C)CN1CCC2(CC1)CN(c1ccccc1NC(=O)Nc1ccc(OC(F)(F)F)cc1)c1ccccc12,Activity,Rattus norvegicus [1],Dose-dependent effect
same,fold change (FC),Rattus norvegicus [2],2.3
same,fold change (FC),Rattus norvegicus [3],2.7
same,Activity,Rattus norvegicus [4],Dose-dependent effect
same,inhibition,Rattus norvegicus [5],Dose-dependent effect
same,Activity,Rattus norvegicus [6],Dose-dependent effect
same,Activity,Rattus norvegicus [7],-54%
same,Activity,Rattus norvegicus [8],-26%
same,inhibition in vivo at 10 mg/kg,Rattus norvegicus [9],-64%
same,inhibition in vivo at 3 mg/kg,Rattus norvegicus [10],-48%
same,inhibition (INH),Rattus norvegicus [11],-30%
same,inhibition (INH),Rattus norvegicus [12],-85%
same,Activity,Rattus norvegicus [13],>95%
same,Activity,Rattus norvegicus [14],>95%
same,Activity,Rattus norvegicus [15],Active
same,Activity,Rattus norvegicus [16],Active
same,Activity,Rattus norvegicus [17],-45%
same,Activity,Rattus norvegicus [18],-41%
same,Activity,Rattus norvegicus [19],64%
same,Activity,Rattus norvegicus [20],66%
same,Activity,Rattus norvegicus [21],Dose-dependent effect
same,inhibition,Rattus norvegicus [22],Dose-dependent effect
same,inhibition,Rattus norvegicus [23],88%
same,inhibition at 10 µM,L-type calcium channel,78%
same,IC50,[24],2.7 µM
same,Ratio IC50,HEK293,> 600
same,IC50,P2X purinoceptor 1,1600 nM
same,IC50,P2Y purinoceptor 2,> 10 µM
same,IC50,P2Y purinoceptor 12,> 20 µM
same,Fu,[25],0.2%
same,Fu,[26],0.1%
same,Fu,[27],0.2%
same,Fu,[28],< 0.1%
same,bioavailability,[29],55%
same,Fu,[30],< 0.1%
same,half-life,[31],582 min
same,clearance,[32],5.3 mL/min/kg
same,Vd,[33],2.8 L/kg
same,AUC,[34],0.587 µM·h
same,bioavailability,[35],32%
same,half-life,[36],450 min
same,Vd,[37],2.8 L/kg
same,clearance,[38],9.1 mL/min/kg
same,solubility,[39],4 µg/mL
same,remaining at 10 min,[40],87%
same,remaining at 10 min,[41],89%
same,logP,[42],> 6.2
same,IC50,P2Y purinoceptor 1 [43],2.5 nM
same,Ki,P2Y purinoceptor 1 [44],4.3 nM
